Values of other authors as cited in patent US7112576B1, “Compositions and methods for cryopreservation of peripheral blood lymphocytes” (Regents of the University of Minnesota, priority 1999, dated 2006).

Tested on: patients who received cryopreserved autologous cell grafts
Conditions: attributed to the infusion of DMSO

C[S+](C)[O-] [DMSO, dimethylsulfoxide]
patients exhibiting decreased heart rates: 98%
patients exhibiting dyspnea: 83%
patients exhibiting transient hypertension: 96%
